Experimental data reported in publication PMC9898036, “VIP152 is a selective CDK9 inhibitor with pre-clinical in vitro and in vivo efficacy in chronic lymphocytic leukemia” (Leukemia, 2022).

What was measured:
[1] = tested on: Calcium Channel L-Type Dihydropyridine; experiment: Eurofins Diversity Panel; assay type: binding; settings: rat, Conc. 10 μM
KIT(A829P) = KIT(A829P) (Homo sapiens, UniProt P10721, A829P); experiment: KINOMEscan: KIT(A829P); assay type: binding; settings: 1000 nM, read-out: Percent Control
HIPK1 = HIPK1 (Homo sapiens, UniProt Q86Z02); experiment: KINOMEscan: HIPK1; assay type: binding; settings: 1000 nM, read-out: Percent Control
IKK-alpha = IKK-alpha (Homo sapiens, UniProt O15111); experiment: KINOMEscan: IKK-alpha; assay type: binding; settings: 1000 nM, read-out: Percent Control
CTK = CTK (Homo sapiens, UniProt P42679); experiment: KINOMEscan: CTK; assay type: binding; settings: 1000 nM, read-out: Percent Control
[2] = tested on: treatment-naïve primary CLL samples; experiment: Annexin V/propidium iodide flow cytometry; assay type: cell-based; settings: Homo sapiens; 10 treatment-naïve samples; read-out: IC50 (cytotoxic activity)
MST3 = MST3 (Homo sapiens, UniProt Q9Y6E0); experiment: KINOMEscan: MST3; assay type: binding; settings: 1000 nM, read-out: Percent Control
CDK4 = CDK4 (Homo sapiens, UniProt P11802); experiment: KINOMEscan: CDK4; assay type: binding; settings: 1000 nM, read-out: Percent Control
Potassium Channel [KATP] = Potassium Channel [KATP] (Cricetus cricetus, UniProt Q09427); experiment: Eurofins Diversity Panel; assay type: binding, hamster; settings: ham, Conc. 10 μM
Description: (§1) The structure and synthesis of VIP152 were recently described by Lücking et al.. (Fig. 1A); however, the selectivity of the molecule in cellular systems has yet to be explored. […] We also performed this experiment at 1000 nM, where CDK9 was inhibited at 99%. […] We found a strong concordance between our data and those of Lücking when comparing the most inhibited kinases. Potential off-target effects of VIP152 were next tested in vitro at a concentration of 10 µM for off-target activity against a broad range of receptors, transporters, ion channels, and enzymes (n = 138) using the Eurofins Diversity Panel.

CAMKK2 = CAMKK2 (Homo sapiens, UniProt Q96RR4); experiment: KINOMEscan: CAMKK2; assay type: binding; settings: 1000 nM, read-out: Percent Control
EPHA3 = EPHA3 (Homo sapiens, UniProt P29320); experiment: KINOMEscan: EPHA3; assay type: binding; settings: 1000 nM, read-out: Percent Control
ZAP70 = ZAP70 (Homo sapiens, UniProt P43403); experiment: KINOMEscan: ZAP70; assay type: binding; settings: 100 nM, read-out: Percent Control
[3] = target: Transporter, Dopamine (DAT) (Homo sapiens, UniProt Q01959); experiment: Eurofins Diversity Panel; assay type: binding; settings: hum, Conc. 10 μM
SBK1 = SBK1 (Homo sapiens, UniProt Q52WX2); experiment: KINOMEscan: SBK1; assay type: binding; settings: 100 nM, read-out: Percent Control
ERK5 = ERK5 (Homo sapiens, UniProt Q13164); experiment: KINOMEscan: ERK5; assay type: binding; settings: 1000 nM, read-out: Percent Control
EPHA8 = EPHA8 (Homo sapiens, UniProt P29322); experiment: KINOMEscan: EPHA8; assay type: binding; settings: 1000 nM, read-out: Percent Control
FGFR3 = FGFR3 (Homo sapiens, UniProt P22607); experiment: KINOMEscan: FGFR3; assay type: binding; settings: 1000 nM, read-out: Percent Control
Bradykinin B2 = Bradykinin B2 (Homo sapiens, UniProt P30411); experiment: Eurofins Diversity Panel; assay type: binding; settings: hum, Conc. 10 μM
INSR = INSR (Homo sapiens, UniProt P06213); experiment: KINOMEscan: INSR; assay type: binding; settings: 1000 nM, read-out: Percent Control
YANK1 = YANK1 (Homo sapiens, UniProt Q8WU08); experiment: KINOMEscan: YANK1; assay type: binding; settings: 100 nM, read-out: Percent Control
[4] = tested on: Glutamate, NMDA, Phencyclidine; experiment: Eurofins Diversity Panel; assay type: binding; settings: rat, Conc. 10 μM
WNK1 = WNK1 (Homo sapiens, UniProt Q9H4A3); experiment: KINOMEscan: WNK1; assay type: binding; settings: 100 nM, read-out: Percent Control
Glucocorticoid = Glucocorticoid (Homo sapiens, UniProt P04150); experiment: Eurofins Diversity Panel; assay type: binding; settings: hum, Conc. 10 μM
[5] = target: EGFR(L747-S752del, P753S) (Homo sapiens, UniProt P00533, DEL747-752/P753S); experiment: KINOMEscan: EGFR(L747-S752del, P753S); assay type: binding; settings: 1000 nM, read-out: Percent Control
CDK7 = CDK7 (Homo sapiens, UniProt P50613); experiment: KINOMEscan: CDK7; assay type: binding
Description: as §1
Kinomescan Kinase Profiling Assay
Kinomescan Assay was performed at DiscoverRX and described in Fabian, et al. 2005, Nat.
Biotechnol. In brief, kinases were produced and subsequently tagged with DNA for qPCR detection.
Streptavidin-coated magnetic beads were bound to biotinylated kinase ligands to serve as a solid support.
VIP152 was dissolved in DMSO and tested across a 10 serial threefold dilution set and compared to a test compound and a DMSO control. Kinases which were inhibited by VIP152 would not be bound to the solid-support resulting in decreased substrate for the qPCR reaction. Kinome map was produced via TreeSpot Analysis from DiscoverRX. […]
NanoBRETTM Target Engagement Assay Protocol […]
The cell and lipid:DNA […]
complex was dispensed into a sterile tissue culture dish and incubated for 22-24 hours. Test compounds were then delivered from the compound source plate to the wells of a 384-well white NBS plate by Echo 550. Cells with NanoBRET Tracer Reagent were then prepared by first removing media from dish of transfected HEK293 cells via aspiration, trypsinization, and allowing cells to dissociate from the dish. Trypsin was neutralized using medium containing serum and centrifuged at 200g for 5 minutes to pellet the cells. Cell density was then adjusted to 2E05 cells/mL in Opti-MEM without phenol red. Complete 20X NanoBRET Tracer Reagent was prepared with Tracer Dilution Buffer and dispensed at a ratio of 1:20 Reagent to cells in the tube. The cell

PFCDPK1(P.falciparum) = PFCDPK1(P.falciparum) (Plasmodium falciparum, UniProt P62344); experiment: DiscoverX KINOMEscan kinase profiling: PFCDPK1(P.falciparum); assay type: binding; settings: PFCDPK1(P.falciparum) (Entrez CDPK1); 100 nM; read-out: Percent Control
CASK = CASK (Homo sapiens, UniProt O14936); experiment: KINOMEscan: CASK; assay type: binding; settings: 1000 nM, read-out: Percent Control
MLCK = MLCK (Homo sapiens, UniProt Q32MK0); experiment: KINOMEscan: MLCK; assay type: binding; settings: 1000 nM, read-out: Percent Control
Histamine H3 = Histamine H3 (Homo sapiens, UniProt Q9Y5N1); experiment: Eurofins Diversity Panel; assay type: binding; settings: hum, Conc. 10 μM

Sequence of CDK7 (P50613 whole entry): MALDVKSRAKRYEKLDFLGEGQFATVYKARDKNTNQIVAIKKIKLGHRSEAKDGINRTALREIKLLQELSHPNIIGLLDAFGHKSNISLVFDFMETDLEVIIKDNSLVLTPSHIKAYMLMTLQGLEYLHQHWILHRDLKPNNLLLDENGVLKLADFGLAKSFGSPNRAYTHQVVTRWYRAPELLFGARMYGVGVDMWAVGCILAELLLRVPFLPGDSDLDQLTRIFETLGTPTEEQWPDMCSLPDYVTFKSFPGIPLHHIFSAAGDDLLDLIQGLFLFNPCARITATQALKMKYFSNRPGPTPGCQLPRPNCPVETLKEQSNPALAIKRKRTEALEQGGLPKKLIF
Sequence of ERK5 (Q13164 whole entry): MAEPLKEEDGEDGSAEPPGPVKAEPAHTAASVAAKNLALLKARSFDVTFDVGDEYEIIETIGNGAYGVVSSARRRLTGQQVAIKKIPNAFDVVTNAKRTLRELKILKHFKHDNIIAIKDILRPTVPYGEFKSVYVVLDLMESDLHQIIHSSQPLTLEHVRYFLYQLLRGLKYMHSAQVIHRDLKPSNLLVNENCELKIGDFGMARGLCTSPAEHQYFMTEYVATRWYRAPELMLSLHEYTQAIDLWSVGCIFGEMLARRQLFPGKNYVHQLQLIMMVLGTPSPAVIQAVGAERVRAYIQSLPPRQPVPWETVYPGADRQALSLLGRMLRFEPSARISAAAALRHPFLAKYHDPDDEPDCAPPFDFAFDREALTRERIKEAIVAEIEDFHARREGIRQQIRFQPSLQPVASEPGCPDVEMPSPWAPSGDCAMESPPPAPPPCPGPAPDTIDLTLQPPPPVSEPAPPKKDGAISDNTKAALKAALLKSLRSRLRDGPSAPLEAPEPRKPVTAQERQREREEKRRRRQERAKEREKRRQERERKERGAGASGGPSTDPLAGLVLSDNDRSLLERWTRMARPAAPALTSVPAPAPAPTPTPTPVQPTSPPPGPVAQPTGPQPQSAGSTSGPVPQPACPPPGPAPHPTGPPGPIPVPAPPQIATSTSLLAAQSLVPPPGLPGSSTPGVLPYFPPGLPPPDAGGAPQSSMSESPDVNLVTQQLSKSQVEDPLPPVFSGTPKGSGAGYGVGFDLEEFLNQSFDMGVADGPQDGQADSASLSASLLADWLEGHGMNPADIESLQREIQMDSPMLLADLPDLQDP
Sequence of FGFR3 (P22607 23-806): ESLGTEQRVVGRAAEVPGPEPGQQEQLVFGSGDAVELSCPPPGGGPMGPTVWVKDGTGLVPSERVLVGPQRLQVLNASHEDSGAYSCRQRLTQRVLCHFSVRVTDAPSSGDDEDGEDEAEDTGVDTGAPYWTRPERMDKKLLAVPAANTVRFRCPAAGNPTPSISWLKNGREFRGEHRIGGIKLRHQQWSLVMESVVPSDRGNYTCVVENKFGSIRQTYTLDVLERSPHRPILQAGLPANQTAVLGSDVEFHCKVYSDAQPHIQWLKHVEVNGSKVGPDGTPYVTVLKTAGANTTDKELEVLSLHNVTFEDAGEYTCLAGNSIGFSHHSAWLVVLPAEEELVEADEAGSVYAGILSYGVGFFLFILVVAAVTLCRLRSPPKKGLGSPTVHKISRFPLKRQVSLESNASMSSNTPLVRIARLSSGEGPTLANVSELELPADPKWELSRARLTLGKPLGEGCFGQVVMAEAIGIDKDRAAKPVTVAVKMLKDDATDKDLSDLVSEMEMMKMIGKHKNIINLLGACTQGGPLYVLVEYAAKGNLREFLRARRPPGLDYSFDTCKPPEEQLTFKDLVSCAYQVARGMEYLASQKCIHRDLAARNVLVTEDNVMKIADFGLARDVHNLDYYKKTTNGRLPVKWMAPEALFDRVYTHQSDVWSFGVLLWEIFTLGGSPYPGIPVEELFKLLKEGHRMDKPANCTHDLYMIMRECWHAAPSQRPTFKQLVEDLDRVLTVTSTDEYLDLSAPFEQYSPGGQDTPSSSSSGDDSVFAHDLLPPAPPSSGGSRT
Sequence of SBK1 (Q52WX2 whole entry): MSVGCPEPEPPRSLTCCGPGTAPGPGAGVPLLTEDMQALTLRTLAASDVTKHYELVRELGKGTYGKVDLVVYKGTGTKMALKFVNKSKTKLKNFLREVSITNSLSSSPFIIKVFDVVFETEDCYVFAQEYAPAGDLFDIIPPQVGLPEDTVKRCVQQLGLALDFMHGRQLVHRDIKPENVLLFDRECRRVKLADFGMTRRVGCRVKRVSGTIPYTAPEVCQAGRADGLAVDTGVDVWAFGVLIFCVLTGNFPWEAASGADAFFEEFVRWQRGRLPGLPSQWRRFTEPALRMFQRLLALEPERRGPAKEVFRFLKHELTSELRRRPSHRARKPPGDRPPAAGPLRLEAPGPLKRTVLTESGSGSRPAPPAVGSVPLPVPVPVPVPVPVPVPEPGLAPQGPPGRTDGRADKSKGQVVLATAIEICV
Sequence of MST3 (Q9Y6E0 whole entry): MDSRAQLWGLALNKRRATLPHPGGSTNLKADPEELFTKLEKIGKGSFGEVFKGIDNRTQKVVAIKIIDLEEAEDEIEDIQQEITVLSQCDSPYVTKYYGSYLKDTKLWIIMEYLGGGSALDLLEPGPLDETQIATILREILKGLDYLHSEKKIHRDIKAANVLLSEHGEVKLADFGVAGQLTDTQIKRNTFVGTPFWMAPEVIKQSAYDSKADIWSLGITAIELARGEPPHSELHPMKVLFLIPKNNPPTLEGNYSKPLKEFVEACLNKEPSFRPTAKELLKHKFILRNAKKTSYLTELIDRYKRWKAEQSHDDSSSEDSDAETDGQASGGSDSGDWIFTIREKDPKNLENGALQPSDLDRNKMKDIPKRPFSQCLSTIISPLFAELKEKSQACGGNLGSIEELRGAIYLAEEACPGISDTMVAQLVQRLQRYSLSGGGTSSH
Sequence of Transporter, Dopamine (DAT) (Q01959 whole entry): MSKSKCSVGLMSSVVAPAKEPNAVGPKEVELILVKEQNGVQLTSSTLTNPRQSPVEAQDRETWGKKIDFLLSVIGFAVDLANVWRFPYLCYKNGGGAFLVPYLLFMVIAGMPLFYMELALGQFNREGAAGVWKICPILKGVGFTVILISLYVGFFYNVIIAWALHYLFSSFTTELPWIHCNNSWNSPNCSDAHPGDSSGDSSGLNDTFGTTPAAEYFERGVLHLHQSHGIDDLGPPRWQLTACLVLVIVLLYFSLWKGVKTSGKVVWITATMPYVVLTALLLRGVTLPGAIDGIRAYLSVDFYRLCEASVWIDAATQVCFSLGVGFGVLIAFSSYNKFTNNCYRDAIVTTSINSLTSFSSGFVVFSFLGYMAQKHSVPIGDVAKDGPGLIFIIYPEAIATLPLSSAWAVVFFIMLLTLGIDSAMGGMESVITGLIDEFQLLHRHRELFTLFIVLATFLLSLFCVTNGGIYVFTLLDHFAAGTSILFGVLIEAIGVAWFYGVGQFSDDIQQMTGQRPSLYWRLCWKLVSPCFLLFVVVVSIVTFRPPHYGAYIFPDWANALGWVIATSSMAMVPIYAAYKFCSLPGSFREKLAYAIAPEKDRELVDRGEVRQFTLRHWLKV
Sequence of EGFR(L747-S752del, P753S) (P00533 with tags, fused parts or gaps DEL747-752/P753S limits assumed): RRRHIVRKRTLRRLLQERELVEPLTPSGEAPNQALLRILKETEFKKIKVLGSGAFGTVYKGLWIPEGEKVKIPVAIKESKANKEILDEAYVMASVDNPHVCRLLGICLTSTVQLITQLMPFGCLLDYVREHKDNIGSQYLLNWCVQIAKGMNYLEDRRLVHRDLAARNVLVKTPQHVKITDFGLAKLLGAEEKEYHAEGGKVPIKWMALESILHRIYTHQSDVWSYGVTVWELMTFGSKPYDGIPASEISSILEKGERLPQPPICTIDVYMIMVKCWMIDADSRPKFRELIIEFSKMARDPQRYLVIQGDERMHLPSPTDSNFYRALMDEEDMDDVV
Sequence of HIPK1 (Q86Z02 whole entry): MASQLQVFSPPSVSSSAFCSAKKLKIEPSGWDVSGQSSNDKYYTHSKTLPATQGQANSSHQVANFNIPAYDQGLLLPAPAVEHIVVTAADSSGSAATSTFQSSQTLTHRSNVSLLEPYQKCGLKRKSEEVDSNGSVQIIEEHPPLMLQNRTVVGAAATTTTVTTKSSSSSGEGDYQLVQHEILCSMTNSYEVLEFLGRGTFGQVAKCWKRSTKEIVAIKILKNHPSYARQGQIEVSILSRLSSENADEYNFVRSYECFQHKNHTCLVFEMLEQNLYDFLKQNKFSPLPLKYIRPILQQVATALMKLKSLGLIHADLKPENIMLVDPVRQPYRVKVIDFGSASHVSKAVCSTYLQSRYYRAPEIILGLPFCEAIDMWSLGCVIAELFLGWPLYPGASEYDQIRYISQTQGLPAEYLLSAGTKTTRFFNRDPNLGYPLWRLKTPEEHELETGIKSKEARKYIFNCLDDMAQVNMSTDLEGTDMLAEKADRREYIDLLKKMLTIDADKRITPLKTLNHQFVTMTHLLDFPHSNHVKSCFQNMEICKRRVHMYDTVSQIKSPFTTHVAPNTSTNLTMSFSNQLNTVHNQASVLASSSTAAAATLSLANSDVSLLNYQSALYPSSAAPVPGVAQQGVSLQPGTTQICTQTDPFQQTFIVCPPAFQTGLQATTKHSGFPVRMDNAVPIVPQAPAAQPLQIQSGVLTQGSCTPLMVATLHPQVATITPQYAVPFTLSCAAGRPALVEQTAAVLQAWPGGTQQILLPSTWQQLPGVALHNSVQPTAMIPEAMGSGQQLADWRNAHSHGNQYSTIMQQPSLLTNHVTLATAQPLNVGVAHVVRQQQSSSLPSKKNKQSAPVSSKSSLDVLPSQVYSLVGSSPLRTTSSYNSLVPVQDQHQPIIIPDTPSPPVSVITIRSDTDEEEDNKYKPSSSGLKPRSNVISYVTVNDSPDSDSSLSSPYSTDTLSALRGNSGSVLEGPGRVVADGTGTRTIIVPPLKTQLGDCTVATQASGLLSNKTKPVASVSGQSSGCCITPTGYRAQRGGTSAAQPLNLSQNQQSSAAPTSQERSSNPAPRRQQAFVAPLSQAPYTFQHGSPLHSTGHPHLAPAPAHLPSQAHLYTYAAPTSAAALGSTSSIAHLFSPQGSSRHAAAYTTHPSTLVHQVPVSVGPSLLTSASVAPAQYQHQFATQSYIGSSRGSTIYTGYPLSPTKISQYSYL

## COc1cc(F)ccc1-c1cc(Nc2cc(CS(C)(=N)=O)ccn2)ncc1F (centres unmarked) [VIP152]
[1]
  % Inh.: 7%
KIT(A829P)
  remaining binding at 1 µM: 100%
HIPK1
  remaining binding at 1 µM: 54%
IKK-alpha
  remaining binding at 1 µM: 93%
CTK
  remaining binding at 1 µM: 84%
[2]
  IC50: < 0.1 µM
MST3
  remaining binding at 1 µM: 94%
CDK4
  remaining binding at 1 µM: 71%
Potassium Channel [KATP]
  inhibition at 10 µM: -19%
CAMKK2
  remaining binding at 1 µM: 16%
EPHA3
  remaining binding at 1 µM: 89%
ZAP70
  remaining binding at 0.1 µM: 99%
[3]
  inhibition at 10 µM: 31%
SBK1
  remaining binding at 0.1 µM: 95%
ERK5
  remaining binding at 1 µM: 95%
EPHA8
  remaining binding at 1 µM: 100%
FGFR3
  remaining binding at 1 µM: 75%
Bradykinin B2
  inhibition at 10 µM: 9%
INSR
  remaining binding at 1 µM: 97%
YANK1
  remaining binding at 0.1 µM: 100%
[4]
  % Inh.: 5%
WNK1
  remaining binding at 0.1 µM: 100%
Glucocorticoid
  inhibition at 10 µM: 30%
[5]
  remaining binding at 1 µM: 94%
CDK7; 100 nM
  inhibition at 0.1 µM: 64%
CDK7; 1000 nM
  inhibition at 1 µM: 97.9%
CDK7; CDK7, 100 nM, read-out: Percent Control
  remaining binding at 0.1 µM: 36%
CDK7; CDK7, 1000 nM, read-out: Percent Control
  remaining binding at 1 µM: 2.1%
PFCDPK1(P.falciparum)
  remaining binding at 0.1 µM: 97%
CASK
  remaining binding at 1 µM: 95%
MLCK
  remaining binding at 1 µM: 100%
Histamine H3
  inhibition at 10 µM: -4%
